Experimental data: ChEMBL document CHEMBL1201862, “PubChem BioAssay data set” (2004)
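Results reflect a 48-hour exposure of cells in 96-well plates to compound at five concentrations. GI50 marks 50% less growth.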 Calls of active or inactive are those of the source. Cut-off read from the data, not from the text of the source: active = GI50 up to about 1.1 µM and inactive = higher.

Key:
Test in all cases: DTP human tumour cell line panel, 48 h
[1] = test system: HOP-92
[2] = test system: U-251
[3] = test system: HL-60
[4] = test system: SF-268
[5] = test system: NCI-H460
[6] = test system: SW-620
[7] = test system: A498
[8] = test system: Malme-3M
[9] = test system: ACHN
[10] = test system: DLD-1
[11] = test system: SK-MEL-5
[12] = test system: OVCAR-3
[13] = test system: SF-539
[14] = test system: OVCAR-8
[15] = test system: NCI-H23
[16] = test system: RPMI-8226
[17] = test system: HOP-62
[18] = test system: M14
[19] = test system: PC-3
[20] = test system: SK-MEL-2

Measured: GI50

O=C(Nc1cc(Cl)ccc1Cl)C(=O)C(c1cnc2ccccc2n1)[N+](=O)[O-] (stereo unspecified)
inactive: [1] > 100 µM | [2] > 100 µM | [3] > 100 µM | [4] > 100 µM | [5] > 100 µM | [6] > 100 µM | [7] > 100 µM | [8] > 100 µM | [9] > 100 µM | [10] > 100 µM | [11] > 100 µM | [12] > 100 µM | [13] > 100 µM | [14] > 100 µM | [15] > 100 µM | [16] > 100 µM | [17] > 100 µM | [18] > 100 µM

COC(=O)C(C)(/N=C/c1ccccc1)c1ccccc1 (stereo unspecified)
inactive: [1] > 100 µM | [2] > 100 µM | [3] > 100 µM | [4] > 100 µM | [5] > 100 µM | [6] > 100 µM | [7] > 100 µM | [8] > 100 µM | [19] > 100 µM | [9] > 100 µM | [11] > 100 µM | [20] > 100 µM | [12] > 100 µM | [13] > 100 µM | [14] > 100 µM | [15] > 100 µM | [16] > 100 µM | [17] > 100 µM | [18] > 100 µM

CC(=O)OC(CC(C)C)P1(=O)N(CC(C)(C)C)[C@@H]2CCCC[C@H]2N1CC(C)(C)C (stereo partly specified)
inactive: [1] 2.58 µM | [2] 7.08 µM | [3] 5.71 µM | [4] 15.1 µM | [5] 8.57 µM | [6] 11.3 µM | [7] 7.06 µM | [8] 9.33 µM | [19] 3.73 µM | [9] 7.28 µM | [11] 9.4 µM | [20] 7.6 µM | [12] 9.23 µM | [13] 10.5 µM | [14] 8.2 µM | [15] 10.2 µM | [16] 4.01 µM | [17] 14.6 µM | [18] 7.4 µM

O=[N+]([O-])c1ccc2nc(/C(=N\Nc3ccccc3)C(O)c3ccc4c(c3)OCO4)c(O)nc2c1 (stereo unspecified)
inactive: [1] 11 µM | [2] > 100 µM | [3] 52.1 µM | [4] > 100 µM | [5] > 100 µM | [6] 56.1 µM | [8] > 100 µM | [9] 30.7 µM | [10] > 100 µM | [11] > 100 µM | [20] > 100 µM | [12] > 100 µM | [13] > 100 µM | [14] > 100 µM | [15] > 100 µM | [16] 86.1 µM | [17] > 100 µM | [18] > 100 µM

CC1=CC(=O)N2[C@H](OC[C@@H]2C(C)C)O1
inactive: [1] > 100 µM | [2] > 100 µM | [3] > 100 µM | [4] > 100 µM | [5] > 100 µM | [6] > 100 µM | [8] > 100 µM | [9] > 100 µM | [10] > 100 µM | [11] > 100 µM | [20] > 100 µM | [12] > 100 µM | [13] > 100 µM | [14] > 100 µM | [15] > 100 µM | [16] > 100 µM | [17] > 100 µM | [18] > 100 µM

Cc1ccc(N2C(=O)/C(=C/c3ccc(N(CCC#N)CCC#N)cc3)N=C2COc2ccc(Cl)cc2Cl)cc1
inactive: [2] > 100 µM | [3] > 100 µM | [4] > 100 µM | [5] > 100 µM | [6] > 100 µM | [8] > 100 µM | [9] > 100 µM | [10] > 100 µM | [11] > 100 µM | [20] > 100 µM | [12] > 100 µM | [13] > 100 µM | [14] > 100 µM | [15] > 100 µM | [16] > 100 µM | [17] > 100 µM | [18] > 100 µM

CCOC(=O)NC(Nc1ccc(OC(F)(F)F)cc1)(C(F)(F)F)C(F)(F)F
inactive: [1] > 100 µM | [2] > 100 µM | [3] > 100 µM | [4] > 100 µM | [5] > 100 µM | [6] > 100 µM | [7] > 100 µM | [8] > 100 µM | [19] > 100 µM | [9] > 100 µM | [11] > 100 µM | [20] > 100 µM | [12] > 100 µM | [13] > 100 µM | [14] > 100 µM | [15] > 100 µM | [16] > 100 µM | [17] > 100 µM | [18] > 100 µM

O=C1CSC(c2cccc([N+](=O)[O-])c2)N1c1ccc(-n2c(-c3ccccc3)nc3ccccc3c2=O)cc1 (stereo unspecified)
inactive: [1] 94.8 µM | [2] > 100 µM | [3] > 100 µM | [4] 99.3 µM | [5] > 100 µM | [6] > 100 µM | [7] > 100 µM | [8] > 100 µM | [19] > 100 µM | [9] > 100 µM | [11] > 100 µM | [20] 56.9 µM | [12] > 100 µM | [13] > 100 µM | [14] > 100 µM | [15] > 100 µM | [16] > 100 µM | [17] > 100 µM | [18] > 100 µM

CC1(C)N=C(N)N=C(N)N1c1cccc(OCc2cccc(N)c2)c1
inactive: [1] > 49 µM | [2] 14.7 µM | [3] 5.61 µM | [4] 14.3 µM | [5] 3.87 µM | [6] > 100 µM | [7] > 93.1 µM | [8] > 71.9 µM | [19] > 38.7 µM | [9] > 100 µM | [11] 12.4 µM | [20] > 100 µM | [12] 39.6 µM | [13] 19.9 µM | [14] > 83 µM | [15] 14.2 µM | [16] 56.1 µM | [17] > 91.6 µM | [18] 58.5 µM

CC(C)CCS(=O)(=O)OCCCCOS(=O)(=O)CCC(C)C
inactive: [2] > 100 µM | [3] > 100 µM | [4] > 100 µM | [5] > 100 µM | [6] > 100 µM | [8] > 100 µM | [9] > 100 µM | [10] > 100 µM | [12] 16.4 µM | [13] > 100 µM | [14] > 100 µM | [15] > 100 µM | [16] > 100 µM | [17] 13.9 µM | [18] 16.1 µM

CC(C)C(NCc1c2ccccc2nc2ccccc12)C(=O)O (stereo unspecified)
inactive: [1] 12.4 µM | [2] 91.8 µM | [3] 25.3 µM | [4] 36.7 µM | [5] 31.1 µM | [6] 39.9 µM | [8] 55.3 µM | [9] 35 µM | [10] 23.8 µM | [11] 64.4 µM | [20] 62.2 µM | [12] 39.5 µM | [13] 45.3 µM | [14] 26.5 µM | [15] 41.8 µM | [16] 27.3 µM | [17] > 100 µM | [18] 62.4 µM

CC1=C2[C@H](c3ccccc3)C3C=CC2(c2ccccc23)N(C(=O)C(c2ccccc2)c2ccccc2)C1=O (stereo partly specified)
inactive: [1] > 100 µM | [2] > 100 µM | [3] 41.3 µM | [4] > 100 µM | [5] > 100 µM | [6] > 100 µM | [7] > 100 µM | [8] > 100 µM | [9] > 100 µM | [10] > 100 µM | [11] > 100 µM | [12] > 100 µM | [13] > 100 µM | [14] > 100 µM | [15] > 100 µM | [17] > 100 µM | [18] > 100 µM

COc1cc(/C=C/C(=O)c2cccc3ccccc23)cc(OC)c1OC
inactive: [2] 6.41 µM | [3] 1.72 µM | [4] 4.74 µM | [5] 3.78 µM | [6] 2.75 µM | [7] 2.82 µM | [8] 11.4 µM | [9] 12 µM | [10] 3.85 µM | [11] 10.4 µM | [20] 3.46 µM | [12] 12.8 µM | [14] 1.98 µM | [15] 5.32 µM | [17] 6.82 µM | [18] 5.93 µM

N#CC1(C#N)C(c2ccc(C3C(C#N)(C#N)C3(C#N)C#N)cc2)C1(C#N)C#N
inactive: [1] > 100 µM | [2] > 100 µM | [3] > 100 µM | [4] > 100 µM | [5] > 100 µM | [6] > 100 µM | [8] > 100 µM | [9] > 100 µM | [10] > 100 µM | [11] > 100 µM | [20] > 100 µM | [12] > 100 µM | [13] > 100 µM | [14] > 100 µM | [15] > 100 µM | [16] > 100 µM | [17] > 100 µM | [18] > 100 µM

Nc1cc(C(=O)NC2C3CC4CC(C3)CC2C4)nc(S)n1 (stereo unspecified)
inactive: [1] > 100 µM | [2] > 100 µM | [3] > 100 µM | [4] > 100 µM | [5] > 100 µM | [6] > 100 µM | [7] > 100 µM | [8] > 100 µM | [10] > 100 µM | [11] > 100 µM | [12] > 100 µM | [13] > 100 µM | [14] > 100 µM | [15] > 100 µM | [17] > 100 µM | [18] > 100 µM
